The results in this text go back to patent US9458095B2, “Oligo-benzamide compounds and their use in treating cancers” (The Board of Regents of the University of Texas System, priority 2011, dated 2016).

Holding throughout (assay type): cell-based
Test [1] has as its target T1, wtAR (Homo sapiens, UniProt P10275).
T1 construct: expressed in transfected cells; host or cells: PC-3 cells (A3); M12 cells (A8)
T1 sequence (P10275 1-920): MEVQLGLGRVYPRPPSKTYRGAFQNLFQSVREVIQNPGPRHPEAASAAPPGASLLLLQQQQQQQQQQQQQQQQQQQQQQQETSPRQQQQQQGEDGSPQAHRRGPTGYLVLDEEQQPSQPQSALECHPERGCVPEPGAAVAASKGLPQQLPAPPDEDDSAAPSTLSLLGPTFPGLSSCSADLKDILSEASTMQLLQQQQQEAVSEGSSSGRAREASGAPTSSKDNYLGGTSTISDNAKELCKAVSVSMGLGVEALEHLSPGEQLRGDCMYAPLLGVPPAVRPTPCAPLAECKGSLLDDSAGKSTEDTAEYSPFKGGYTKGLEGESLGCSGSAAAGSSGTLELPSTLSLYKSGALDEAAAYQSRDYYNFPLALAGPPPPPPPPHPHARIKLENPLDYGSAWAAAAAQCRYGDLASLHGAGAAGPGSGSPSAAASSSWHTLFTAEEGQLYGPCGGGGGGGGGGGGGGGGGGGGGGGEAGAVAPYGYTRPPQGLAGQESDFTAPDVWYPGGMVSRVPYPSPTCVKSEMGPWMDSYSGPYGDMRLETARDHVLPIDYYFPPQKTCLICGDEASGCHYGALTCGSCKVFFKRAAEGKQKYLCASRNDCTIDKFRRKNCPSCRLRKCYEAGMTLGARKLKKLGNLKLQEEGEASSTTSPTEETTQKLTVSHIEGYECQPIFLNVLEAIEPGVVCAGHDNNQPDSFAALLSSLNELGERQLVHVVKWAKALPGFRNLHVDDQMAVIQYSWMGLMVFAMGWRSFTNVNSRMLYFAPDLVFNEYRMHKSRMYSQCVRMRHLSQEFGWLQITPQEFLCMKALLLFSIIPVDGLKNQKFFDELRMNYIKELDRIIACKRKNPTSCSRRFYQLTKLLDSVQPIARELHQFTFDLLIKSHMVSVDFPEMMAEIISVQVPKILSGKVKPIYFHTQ
Briefly: Rat probasin-luciferase reporter in M12 cells with ARwt. The note with it: 100 nM peptidomimetic, 48 h. The protocol: FIG. 5. Effect of T6 on basal level of ARE expression in M12 cells. M12 cells were transiently transfected with the rat probasin-luciferase reporter and either ARwt or ARv7. Cells were maintained for 48 h without (EtOH) and in the presence of 100 nM of peptidomimetic or volume equivalent of vehicle (DMSO) control or 10 μM of MDV3100. Luciferase assay results are shown.

The target of test [2] is T2, AR567 (Homo sapiens, UniProt P10275).
T2 construct: expressed in transfected cells; host or cells: PC-3 cells
T2 sequence (P10275 with tags, fused parts or gaps limits assumed): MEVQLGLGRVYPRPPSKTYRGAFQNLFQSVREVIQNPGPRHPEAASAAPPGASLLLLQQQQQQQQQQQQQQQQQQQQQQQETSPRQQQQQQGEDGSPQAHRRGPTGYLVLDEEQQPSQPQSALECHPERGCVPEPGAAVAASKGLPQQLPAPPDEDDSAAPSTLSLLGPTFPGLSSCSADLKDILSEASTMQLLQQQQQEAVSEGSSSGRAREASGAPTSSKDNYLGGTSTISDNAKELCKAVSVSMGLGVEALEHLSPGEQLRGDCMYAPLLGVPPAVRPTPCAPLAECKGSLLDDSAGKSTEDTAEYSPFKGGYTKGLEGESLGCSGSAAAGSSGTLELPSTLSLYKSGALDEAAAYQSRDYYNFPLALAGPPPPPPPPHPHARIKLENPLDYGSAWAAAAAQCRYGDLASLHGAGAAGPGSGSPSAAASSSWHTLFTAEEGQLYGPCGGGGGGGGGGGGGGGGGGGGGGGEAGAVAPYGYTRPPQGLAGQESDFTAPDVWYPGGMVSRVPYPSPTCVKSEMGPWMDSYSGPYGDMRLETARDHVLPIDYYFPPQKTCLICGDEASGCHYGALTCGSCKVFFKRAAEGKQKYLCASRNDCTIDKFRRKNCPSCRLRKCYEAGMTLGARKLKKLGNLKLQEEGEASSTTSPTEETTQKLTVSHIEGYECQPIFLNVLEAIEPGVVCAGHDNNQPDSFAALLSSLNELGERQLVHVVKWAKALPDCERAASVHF
The test is described as follows: ARE-luciferase reporter in PC-3 cells expressing AR567. The note with it: 100 nM peptidomimetic, 48 h. The procedure:
FIGS. 3A-B. Effect of T6 on basal transcription driven by splice variants. PC-3 cells were transiently transfected with ARE-luciferase along with plasmids expressing ARv7 (FIG. 3A) or AR567 (FIG. 3B). Cells were maintained for 48 h either without (EtOH) or with (1 nM DHT) and in the presence of 100 nM of peptidomimetic or volume equivalent of vehicle (DMSO) control. Luciferase assay results are shown. Data is normalized to the basal level of expression with AR wt in PC3 cells.
A general note: Reporter assays use an easily measured gene product as a stand-in for the process of interest.

Test [3] concerns ARE activity in CWR22v1 cells (ARwt and ARv7). The test is described as follows: ARE-luciferase reporter in CWR22v1 cells. The procedure: FIG. 4. Effect of T6 on basal level of ARE expression in CWR22v1 cells. CWR22v1 cells were transiently transfected with ARE-luciferase. Cells were maintained for 48 h without (EtOH) and in the presence of 100 nM of peptidomimetic or volume equivalent of vehicle (DMSO) control or 10 μM of casodex or MDV3100.

In test [4] the test system is ARv7 regulated genes. Briefly: Q-PCR of ARv7 regulated genes. The note with it: data not shown. From the text:
Finally, confirmation of the role of T6 in modulating ARv7 driven transcription was obtained by evaluation of the gene expression of ARv7 regulated genes.

Structures are written as SMILES. Entries after “also recorded” stand apart in the source; their conditions may differ.

On to `CC(C)COc1cc(C(N)=O)ccc1NC(=O)c1ccc(NC(=O)c2ccc([N+](=O)[O-])c(OCCc3ccc4ccccc4c3)c2)c(OCC(C)C)c1` [T6], for which the “expression of rat probasin reporter in M12 cells driven by wtAR” value in test [1] was “able to independently knock down”. Also, the “transcription driven by AR567 splice variant” value in test [2] is “decreases”. Further, the “basal transcription from minimal ARE luciferase in CWR22v1 cells (driven by ARv7)” value in test [3] (100 nM peptidomimetic, 48 h, without androgen (EtOH)) was “able to suppress; also recorded: abrogated”. The “DHT-induced transcription from minimal ARE luciferase in CWR22v1 cells” value in test [3] (DHT) is recorded as “able to suppress”. Also, in test [4], the “expression of a panel of ARv7 regulated genes (Q-PCR)” value is recorded as “able to abrogate”.
